As usually defined, the IC50 is the concentration at which inhibition is half-maximal. The term cell viability denotes the share of living cells, or the viability signal relative to a control. Low readings indicate a greater loss of cells, high ones better survival.

The results in this text go back to paper PMC6456411 (Angewandte Chemie (International ed. in English), 2019).

Where two headings read alike, the source gives them in different places.

In data set [1] the test system is Saos-2 cells in 3D culture. Nature of the data set: Cytotoxicity of chemotherapy drugs on 3D cell spheroids of Saos-2. In kind it is cell-based.
In data set [2] the test system is co-culture of HS-5 and Saos-2 cells, 2D cell sheets. The experiment in a line: Cytotoxicity of chemotherapy drugs on co-cultured 2D cell sheets. The class given is cell-based. The settings on record: co-culture 2D cell sheets, 24 h; for cell toxicity: within the tested concentrations.
Data set [3] relates to co-culture of HS-5 and Saos-2 cells, 3D cell spheroids. The experiment in a line: Cytotoxicity of chemotherapy drugs on co-cultured 3D spheroids. In kind it is cell-based. Conditions: co-culture 3D cell spheroids, 24 h; for cell toxicity: within the tested concentrations.
The next data set relates to Saos-2 cells. Nature of the data set: Cytotoxicity of chemotherapy drugs on 2D cell culture of Saos-2.
Data set [4] relates to co-culture of HS-5 and Saos-2 cells. Nature of the data set: Spheroid formation and live-dead assay in co-culture of HS-5 and Saos-2 cells. The class given is cell-based. The settings on record: treated for 48 h; 1P:2 300 μM, ratio 1:1.
Where [5] appears, read: Homo sapiens, SAOS-2, 48 h, read-out: IC50 against Saos-2 cells.

In the case of `COc1cccc2c1C(=O)c1c(O)c3c(c(O)c1C2=O)C[C@@](O)(C(=O)CO)C[C@@H]3O[C@H]1C[C@H](N)[C@H](O)[C@H](C)O1` [Dox, doxorubicin], the results for the IC50 (in data set [1] (setting [5]); with Saos-2 cells (setting [5])) were > 6 µM and 1.4 µM, respectively. For the same compound, the “increase of IC50 in 3D culture than 2D culture” value in data set [1] (Saos-2 cells, 48 h) is reported as “more than 3 times”. Besides, the cell killing result in data set [2] (5 μM) is “kills about half of cells”. Also, the cell toxicity entry in data set [2] is “dosage dependent cell toxicity”; in data set [3], “little toxicity”. Moreover, the cell death entry in data set [3] (5 μM) is given as “hardly causes cell death”.
For the compound `N.N.[Cl][Pt][Cl]` [cisplatin], the IC50 in data set [1] (read-out: IC50 against Saos-2 cells, 3D culture, 48 h) came out at 33.3 µM; in data set [1] (read-out: increase of IC50 in 3D culture, Saos-2 cells, 48 h, 3D versus 2D), 12 µM. For the same compound, the cell killing entry in data set [2] (50 nM) is on record as “kills about half of cells”. For the same compound, the cell toxicity entry was “dosage dependent cell toxicity” in data set [2] and “little toxicity” in data set [3]. Moreover, in data set [3] (50 nM), the cell death result is “hardly causes cell death”.
Turning to `CN[C@H](CC(C)C)C(=O)N[C@H]1C(=O)N[C@@H](CC(N)=O)C(=O)N[C@H]2C(=O)N[C@H]3C(=O)N[C@H](C(=O)N[C@H](C(=O)O)c4cc(O)cc(O)c4-c4cc3ccc4O)[C@H](O)c3ccc(c(Cl)c3)Oc3cc2cc(c3O[C@@H]2O[C@H](CO)[C@@H](O)[C@H](O)[C@H]2O[C@H]2C[C@](C)(N)[C@H](O)[C@H](C)O2)Oc2ccc(cc2Cl)[C@H]1O` [compound 2, vancomycin], in data set [4], the “morphology of co-cultured HS-5 and Saos-2 cells” value was “remain a 2D cell sheet”. The “influence on cytotoxicity of chemotherapy drugs against Saos-2 cells” value in the data set on Saos-2 cells (co-incubating with chemotherapy drugs) is on record as “hardly influence their cytotoxicity”.
Turning to `CC(=O)O[C@H]1C(=O)[C@@]2(C)[C@H]([C@H](OC(=O)c3ccccc3)[C@]3(O)C[C@H](OC(=O)[C@H](O)[C@@H](NC(=O)c4ccccc4)c4ccccc4)C(C)=C1C3(C)C)[C@]1(OC(C)=O)CO[C@@H]1C[C@@H]2O` [taxol], the cell viability in data set [1] (Saos-2 3D spheroids, 40 nM, 48 h) amounted to 94.25%; in the data set with Saos-2 cells (Saos-2 2D sheet, 40 nM, 48 h), 60.84%.
